Results reported in patent publication US20100324067A1, “TETRACYCLIC DIPYRANO-COUMARIN COMPOUNDS WITH ANTI-HIV AND ANTI-MYCOBACTERIUM TUBERCULOSIS ACTIVITIES” (priority 2007, published 2010).
In brackets after ≈: the same amount, converted by molar mass. Where two headings read alike, the source gives them in different places.

Tests used:
[1] = test system: Mycobacterium tuberculosis H37Rv (ATCC 27294); experiment: Microplate Alamar Blue Assay (MABA) in BACTEC 12B medium (TAACF screen); assay type: cell-based; details: for IC50: read-out: IC50
[2] = read-out: anti-TB active compound (MIC90 less than 10 μg/mL), classification

| Structure (SMILES) | melting point [°C] | IC50 ([1]; MABA, H37Rv) [µg/mL] | MIC90 ([1]; MABA, H37Rv, read-out: MIC90) [µg/mL] | MIC90 [1, 2] [µg/mL] |
| --- | --- | --- | --- | --- |
| CCCc1cc(=O)oc2c3c(c4c(c12)OCC(C)C4OCC)OC(C)CC3=O (stereo not drawn) [Example 95, 8-ethyoxyl-7,10-dimethyl-4-n-propyl-7,8,10,11-tetrahydro-6H-benzo[2,3-f;2′,3‘-h’ ]-trip yranyl-2,12-dione] | 198 to 201 | 20.1 (≈ 52 µM) | 34.5 (≈ 89.2 µM) |  |
| CCCc1cc(=O)oc2c3c(c4c(c12)OC(C)C=C4)OC(C)CC3=O (stereo not drawn) [Example 80, 6,10-dimethyl-4-n-propyl-2H,6H,12H-benzo[1,2-b:3,4-b′:5,6-b″]-tripyranyl-2,12-dione] | 125 to 127 | 3.42 (≈ 10 µM) | 5.46 (≈ 16 µM) | < 10 |
| CCCc1cc(=O)oc2c3c(c4c(c12)OC(c1ccccc1)C=C4)OC(C)CC3=O (stereo not drawn) [Example 41, 10-methyl-4-n-propyl-6-phenyl-2H,6H,12H-benzo[1,2-b:3,4-b′:5,6-b″]-tripyranyl-2,12-dione] | 96 to 99 | 2.92 (≈ 7.25 µM) | 3.27 (≈ 8.12 µM) | < 10 |
| CCCc1cc(=O)oc2c3c(c4c(c12)OC(C)(C)C=C4)OC(CNS(=O)(=O)c1ccc(NC(C)=O)cc1)CC3=O (stereo not drawn) [Example 61, 6,6-dimethyl-4-n-propyl-10-(p-acetylaminophenylsulfonamido)methylene-2H,6H,12H-benzo[1,2-b:3,4-b′:5,6-b″]-tripyranyl-2,12-dione] | 127 to 128.5 | 17.2 (≈ 30.4 µM) | > 100 |  |
| CCc1cc(=O)oc2c3c(c4c(c12)OC(CC)C=C4)OC(C)CC3=O (stereo not drawn) [Example 53, 10-methyl-4,6-diethyl-2H,6H,12H-benzo[1,2-b:3,4-b′:5,6-b″]-tripyranyl-2,12-dione] | 129 to 131 | 6.1 (≈ 17.9 µM) | 6.85 (≈ 20.1 µM) | < 10 |
| CC1CC(=O)c2c(c3c(c4c(-c5cc(F)c(Cl)nc5Cl)cc(=O)oc24)OC(C)(C)C=C3)O1 (stereo not drawn) [Example 25] | 158 to 160 | 2.86 (≈ 6 µM) | 3.9 (≈ 8.18 µM) | < 10 |
| CCCC1C=Cc2c3c(c4oc(=O)c(F)c(CC)c4c2O1)C(=O)CC(C)O3 (stereo not drawn) [Example 39, 10-methyl-4-ethyl-6-n-propyl-3-fluoro-2H,6H,12H-benzo[1,2-b:3,4-b′:5,6-b″]-tripyranyl-2,12-dione] | 151 to 153 | 5.09 (≈ 13.7 µM) | 9.94 (≈ 26.7 µM) | < 10 |
| CCCCc1cc(=O)oc2c3c(c4c(c12)OC(CCC)C=C4)OC(C)CC3=O (stereo not drawn) [Example 37, 10-methyl-6-n-propyl-4-n-butyl-2H,6H,12H-benzo[1,2-b:3,4-b′:5,6-b″]-tripyranyl-2,12-dione] | 135 to 138 | 5.33 (≈ 13.9 µM) | 8.36 (≈ 21.9 µM) | < 10 |
| CCCc1cc(=O)oc2c3c(c4c(c12)OC(CC)C=C4)OC(C)CC3=O (stereo not drawn) [Example 52, 10-methyl-4-n-propyl-6-ethyl-2H,6H,12H-benzo[1,2-b:3,4-b′:5,6-b″]-tripyranyl-2,12-dione] | 139 to 141 | 11.8 (≈ 33.2 µM) | 13.4 (≈ 37.8 µM) |  |
| CCc1c(F)c(=O)oc2c3c(c4c(c12)OC(CC)C=C4)OC(C)CC3=O (stereo not drawn) [Example 55, 10-methyl-4,6-diethyl-3-fluoro-2H,6H,12H-benzo[1,2-b:3,4-b′:5,6-b″]-tripyranyl-2,12-dione] | 144 to 146 | < 0.2 | 1.07 (≈ 2.99 µM) | < 10 |
| CCCc1c(F)c(=O)oc2c3c(c4c(c12)OC(CC)C=C4)OC(C)CC3=O (stereo not drawn) [Example 56, 10-methyl-4-n-propyl-6-ethyl-3-fluoro-2H,6H,12H-benzo[1,2-b:3,4-b′:5,6-b″]-tripyrany 1-2,12-dione] | 147 to 149 | 62.3 (≈ 167 µM) | > 100 |  |
| CCCc1cc(=O)oc2c3c(c4c(c12)OC(c1ccccc1N)C=C4)OC(C)CC3=O (stereo not drawn) [Example 99] | 175 to 177 | 7.49 (≈ 17.9 µM) | 15.5 (≈ 37.1 µM) |  |
| CCCCC1C=Cc2c3c(c4oc(=O)c(Cl)c(CCC)c4c2O1)C(=O)CC(C)O3 (stereo not drawn) [Example 49, 10-methyl-4-n-propyl-3-chloro-6-n-butyl-2H,6H,12H-benzo[1,2-b:3,4-b′:5,6-b″]-tripyranyl-2,12-dione] | 146 to 149 | 4.62 (≈ 11.1 µM) | 6.4 (≈ 15.3 µM) | < 10 |
| CCCc1c(Cl)c(=O)oc2c3c(c4c(c12)OC(CC)C=C4)OC(C)CC3=O (stereo not drawn) [Example 54, 10-methyl-4-n-propyl-6-ethyl-3-chloro-2H,6H,12H-benzo[1,2-b:3,4-b′:5,6-b″]-tripyranyl-2,12-dione] | 145 to 147 | 36.5 (≈ 93.9 µM) | 61.8 (≈ 159 µM) |  |
| Cc1c(C)c2c3c(c4c(c2oc1=O)C(=O)CC(C)O4)C=CC(C)(C)O3 (stereo not drawn) [Example 2, 3,4,6,6,10-pentamethyl-2H,6H,12H-benzo[1,2-b:3,4-b′:5,6-b″]-tripyranyl-2,12-dione] | 142 to 144 | 20.3 (≈ 59.7 µM) | 35.2 (≈ 103 µM) |  |
| CCCc1c(F)c(=O)oc2c3c(c4c(c12)OC(c1ccccc1)C=C4)OC(C)CC3=O (stereo not drawn) [Example 43, 10-methyl-4-n-propyl-6-phenyl-3-fluoro-2H,6H,12H-benzo[1,2-b:3,4-b′:5,6-b″]-tripyranyl-2,12-dione] | 128 to 129 | 6.42 (≈ 15.3 µM) | 10.8 (≈ 25.7 µM) |  |
| CCCc1c(F)c(=O)oc2c3c(c4c(c12)OC(C)C=C4)OC(C)CC3=O (stereo not drawn) [Example 84, 6,10-dimethyl-4-n-propyl-3-fluoro-2H,6H,12H-benzo[1,2-b:3,4-b′:5,6-b″]-tripyranyl-2,12-dione] | 150 to 153 | 17.3 (≈ 48.3 µM) | 27.7 (≈ 77.3 µM) |  |

| Structure (SMILES) | melting point [°C] | IC50 ([1]; MABA, H37Rv) [µg/mL] | MIC90 ([1]; MABA, H37Rv, read-out: MIC90) [µg/mL] | MIC90 [1, 2] [µg/mL] |
| --- | --- | --- | --- | --- |
| CC1CC(=O)c2c(c3c(c4c(-c5ccc(N)cc5)cc(=O)oc24)OC(C)(C)C=C3)O1 (stereo not drawn) [Example 23, 6,6,10-trimethyl-4-p-aminophenyl-2H,6H,12H-benzo[1,2-b:3,4-b′:5,6-b″]-tripyranyl-2,12-dione] | 149 to 151 | 24.2 (≈ 60 µM) | 27.6 (≈ 68.4 µM) |  |
| CCCc1cc(=O)oc2c3c(c4c(c12)OC(C)(C)C=C4)OC(CN1CCCCC1)CC3=O (stereo not drawn) | 154 to 155 |  |  |  |
| CCCc1cc(=O)oc2c3c(c4c(c12)OC(C)(C)C=C4)OC(CNS(=O)(=O)c1ccc(F)cc1)CC3=O (stereo not drawn) | 129 to 131 |  |  |  |
| CCCc1cc(=O)oc2c3c(c4c(c12)OC(C)(C)C=C4)OC(=O)CC3 | 132 to 135 |  |  |  |
| CC1CC(=O)c2c(c3c(c4c(CN5CCNCC5)cc(=O)oc24)OC(C)(C)C=C3)O1 (stereo not drawn) [Example 6, 6,6,10-trimethyl-4-piperazidinylmethylene-10,11-dihydro-6H-benzo[2,3-f:2′,3′-h]-tripyranyl-2,12-dione] | 156 to 158 | 52.4 (≈ 128 µM) | > 100 |  |
| CCCc1cc(=O)oc2c3c(c4c(c12)OC(C)(C)C=C4)OC(CN=[N+]=[N-])CC3=O (stereo not drawn) [Example 58] | 116 to 117 | 34.5 (≈ 87.2 µM) | 54.9 (≈ 139 µM) |  |
| CC1CC(=O)c2c(c3c(c4c(CCl)cc(=O)oc24)OC(C)(C)C=C3)O1 (stereo not drawn) | 132 to 134 |  |  |  |
| CCCc1cc(=O)oc2c(-c3cccn3Cc3ccco3)c(O)c3c(c12)OC(C)(C)C=C3 | 157 to 159 |  |  |  |
| CCCc1cc(=O)oc2c(-c3cccn3Cc3ccccn3)c(O)c3c(c12)OC(C)(C)C=C3 [Example 68, 5-hydroxy-6-(1′-(2-pyridyl)methylene-1′H-pyrrolyl-2′-ene)-2,2-dimethyl-10-n-propyl-2H-benzo-[2,3-f]-pyranyl-8-one] | 171 to 173 | 33 (≈ 74.6 µM) | 44.9 (≈ 101 µM) |  |
| C/C=C/C1C=Cc2c3c(c4oc(=O)cc(CCC(F)(F)F)c4c2O1)C(=O)CC(C)O3 (stereo not drawn) | 147 to 149 |  |  |  |
| CCCCC1C=Cc2c3c(c4oc(=O)cc(CCC)c4c2O1)C(=O)CC(C)O3 (stereo not drawn) | 138 to 139 |  |  |  |
| CCCc1cc(=O)oc2c3c(c4c(c12)OC(C)(C)C=C4)OC(CNC(=O)Nc1ccc(F)cc1)CC3=O (stereo not drawn) [Example 60, 6,6-dimethyl-4-n-propyl-10-(p-fluorophenylureido)methylene-2H,6H,12H-benzo[1,2-b:3,4-b′:5,6-b″]-tripyranyl-2,12-dione] | 119 to 120.5 | 32.5 (≈ 64.3 µM) | > 100 |  |
| CCCc1cc(=O)oc2c3c(c4c(c12)OC(CCC)C=C4)OCC(C)C3=O (stereo not drawn) [Example 51] | 148 to 150 | < 0.2 | 0.496 (≈ 1.35 µM) | < 10 |
| CCCc1cc(=O)oc2c3c(c4c(c12)OC(c1ccccc1)C=C4)OCC(C)C3=O (stereo not drawn) [Example 78, 4-n-propyl-6-phenyl-11-methyl-2H,6H,12H-benzo[1,2-b:3,4-b′:5,6-b″]-tripyranyl-2,12-dione] | 187 to 189 | 99 (≈ 246 µM) | > 100 |  |
| CCCc1cc(=O)oc2c3c(c4c(c12)OC(C)(C)C=C4)OC(CN1CCCC1)CC3=O (stereo not drawn) | 148 to 149 |  |  |  |
| CCc1cc(=O)oc2c3c(c4c(c12)OCC(C)=C4)OC(C)CC3=O (stereo not drawn) | 121 to 123 |  |  |  |
